Consider six compounds from US20130072427A1, “GPR 119 MODULATORS” (Pfizer Inc., priority 2009, published 2013).

In experiment [1] the target is T1, human GPR119 (Homo sapiens, UniProt Q8TDV5).
T1 construct: host or cells: HEK293-CRE beta-lactamase cells
T1 sequence (Q8TDV5 1-335): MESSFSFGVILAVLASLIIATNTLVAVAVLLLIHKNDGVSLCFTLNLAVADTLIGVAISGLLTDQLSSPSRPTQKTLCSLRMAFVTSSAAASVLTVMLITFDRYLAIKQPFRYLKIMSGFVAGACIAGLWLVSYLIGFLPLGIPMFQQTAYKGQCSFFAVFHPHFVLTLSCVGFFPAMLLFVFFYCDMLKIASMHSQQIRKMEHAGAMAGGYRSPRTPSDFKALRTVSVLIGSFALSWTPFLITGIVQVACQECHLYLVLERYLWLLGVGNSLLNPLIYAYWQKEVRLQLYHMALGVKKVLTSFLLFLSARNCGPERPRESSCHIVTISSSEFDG
The experiment can be described thus: cAMP functional assay (HTRF, hGPR119 HEK-CRE beta-lactamase cells). The conditions noted are these: for pEC50: hGPR119 HEK-CRE beta-lactamase cells, HTRF cAMP, 30 minutes, read-out: Human cAMP Functional EC50. In kind it is cell-based. How it is done:
GPR119 agonist activity was also determined with a cell-based assay utilizing an HTRF (Homogeneous Time-Resolved Fluorescence) cAMP detection kit (cAMP dynamic 2 Assay Kit; Cis Bio cat #62AM4PEC) that measures cAMP levels in the cell. The method is a competitive immunoassay between native cAMP produced by the cells and the cAMP labeled with the dye d2. The tracer binding is visualized by a Mab anti-cAMP labeled with Cryptate. The specific signal (i.e. energy transfer) is inversely proportional to the concentration of cAMP in either standard or sample.
Specifically, hGPR119HEK-CRE beta-lactamase cells (Invitrogen 2.5×10^7/ml; the same cell line used in the beta-lactamase assay described above) are removed from cryopreservation and diluted in growth medium (Dulbecco's modified Eagle medium high glucose (DMEM; Gibco Cat #11995-065), 1% charcoal dextran treated fetal bovine serum (CD serum; HyClone Cat #SH30068.03), 1×MEM Nonessential amino acids (Gibco Cat #15630-080) and 25 mM HEPES pH 7.0 (Gibco Cat #15630-080)). The cell concentration was adjusted to 1.5×10^5 cells/ml and 30 mls of this suspension was added to a T-175 flask and incubated at 37 degrees Celsius in a humidified environment in 5% carbon dioxide. After 16 hours (overnight), the cells were removed from the T-175 flask (by rapping the side of the flask), centrifuged at 800×g and then re-suspended in assay medium (1×HBSS+CaCl2+MgCl2 (Gibco Cat #14025-092) and 25 mM HEPES pH 7.0 (Gibco Cat #15630-080)). The cell concentration was adjusted to 6.25×10^5 cells/ml with assay medium and 8 μl of this cell suspension (5000 cells) was added to each well of a white Greiner 384-well, low-volume assay plate (VWR cat #82051-458).
Varying concentrations of each compound to be tested were diluted in assay buffer containing 3-isobutyl-1-methylxanthin (IBMX; Sigma cat #15879) and added to the assay plate wells in a volume of 2 microL (final IBMX concentration was 400 microM and final DMSO concentration was 0.58%). Following 30 minutes incubation at room temperature, 5 microL of labeled d2 cAMP and 5 microL of anti-cAMP antibody (both diluted 1:20 in cell lysis buffer; as described in the manufacturers assay protocol) were added to each well of the assay plate. The plates were then incubated at room temperature and after 60 minutes, changes in the HTRF signal were read with an Envision 2104 multilabel plate reader using excitation of 330 nm and emissions of 615 and 665 nm. Raw data were converted to nM cAMP by interpolation from a cAMP standard curve (as described in the manufacturer's assay protocol) and EC50 determinations were made from an agonist-response curves analyzed with a curve fitting program using a 4-paramter logistic dose response equation.
Background: TR-FRET usually uses a lanthanide donor and a delayed reading to cut background.

For experiment [2], the target named is T2, human GPR119 (Homo sapiens, UniProt Q8TDV5).
T2 construct: host or cells: U2OS
The experiment can be described thus: Beta-arrestin functional assay (DiscoverX PathHunter U2OS hGPR119 β-arrestin cells). Format: cell-based. The arrangement: Emax: dose or concentration left out as unconfirmed. The conditions noted are these: one line per run; for pEC50: U2OS hGPR119 β-arrestin cells, 90 minute incubation, read-out: Human B-arrestin Functional EC50; for Emax: U2OS, percent of maximal activity relative to standard GPR119 agonist (WO2005121121) at 10 microM, read-out: Intrinsic Activity* (%) (B-arrestin). As to the method:
GPR119 agonist activity was also determined with a cell-based assay utilizing DiscoverX PathHunter β-arrestin cell assay technology and their U2OS hGPR119 β-arrestin cell line (DiscoverX Cat #93-0356C3). In this assay, agonist activation is determined by measuring agonist-induced interaction of β-arrestin with activated GPR119. A small, 42 amino acid enzyme fragment, called ProLink was appended to the C-terminus of GPR119. Arrestin was fused to the larger enzyme fragment, termed EA (Enzyme Acceptor). Activation of GPR119 stimulates binding of arrestin and forces the complementation of the two enzyme fragments, resulting in formation of a functional β-galactosidase enzyme capable of hydrolyzing substrate and generating a chemiluminescent signal.
Specifically, U2OS hGPR119 β-arrestin cells (DiscoverX 1×10^7/ml) are removed from cryopreservation and diluted in growth medium (Minimum essential medium (MEM; Gibco Cat #11095-080), 10% heat inactivated fetal bovine serum (HIFBS; Sigma Cat #F4135-100), 100 mM sodium pyruvate (Sigma Cat #S8636), 500 microg/mL G418 (Sigma Cat #G8168) and 250 microg/mL Hygromycin B (Invitrogen Cat #10687-010). The cell concentration was adjusted to 1.66×10^5 cells/ml and 30 mls of this suspension was added to a T-175 flask and incubated at 37 degrees Celsius in a humidified environment in 5% carbon dioxide. After 48 hours, the cells were removed from the T-175 flask with enzyme-free cell dissociation buffer (Gibco cat #13151-014), centrifuged at 800×g and then re-suspended in plating medium (Opti-MEM I (Invitrogen/BRL Cat #31985-070) and 2% charcoal dextran treated fetal bovine serum (CD serum; HyClone Cat #SH30068.03). The cell concentration was adjusted to 2.5×10^5 cells/ml with plating medium and 10 microL of this cell suspension (2500 cells) was added to each well of a white Greiner 384-well low volume assay plate (VWR cat #82051-458) and the plates were incubated at 37 degrees Celsius in a humidified environment in 5% carbon dioxide.
After 16 hours (overnight) the assay plates were removed from the incubator and varying concentrations of each compound to be tested (diluted in assay buffer (1×HBSS+CaCl2+MgCl2 (Gibco Cat #14025-092), 20 mM HEPES pH 7.0 (Gibco Cat #15630-080) and 0.1% BSA (Sigma Cat #A9576)) were added to the assay plate wells in a volume of 2.5 microL (final DMSO concentration was 0.5%). After a 90 minute incubation at 37 degrees Celsius in a humidified environment in 5% carbon dioxide, 7.5 microL of Galacton Star β-galactosidase substrate (PathHunter Detection Kit (DiscoveRx Cat #93-0001); prepared as described in the manufacturers assay protocol) was added to each well of the assay plate. The plates were incubated at room temperature and after 60 minutes, changes in the luminescence were read with an Envision 2104 multilabel plate reader at 0.1 seconds per well. EC50 determinations were made from an agonist-response curves analyzed with a curve fitting program using a 4-parameter logistic dose response equation.
T2 sequence (P32121 whole entry partner, one chain of several): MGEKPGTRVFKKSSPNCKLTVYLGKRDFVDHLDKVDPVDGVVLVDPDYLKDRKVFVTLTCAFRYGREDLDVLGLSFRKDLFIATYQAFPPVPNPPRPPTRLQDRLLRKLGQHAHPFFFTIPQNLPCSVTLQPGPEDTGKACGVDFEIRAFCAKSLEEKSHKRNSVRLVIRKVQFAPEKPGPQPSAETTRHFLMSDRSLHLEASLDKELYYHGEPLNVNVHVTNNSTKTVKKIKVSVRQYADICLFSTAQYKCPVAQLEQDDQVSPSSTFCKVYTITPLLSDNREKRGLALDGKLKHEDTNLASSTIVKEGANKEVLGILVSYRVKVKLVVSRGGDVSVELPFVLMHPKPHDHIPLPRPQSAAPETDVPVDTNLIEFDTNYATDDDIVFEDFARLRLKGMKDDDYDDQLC

The mark [3] stands for this setting: percent of maximal activity relative to standard GPR119 agonist (WO2005121121) at 10 μM, one line per run, read-out: Intrinsic Activity* (%) (cAMP).

pEC50: −log10 of the molar value. Several values for one entry are separate records, joined by “and”; a condition that tells them apart may be missing. Equal values may be shown once.

Regarding `Cc1c(O[C@H]2[C@@H]3COC[C@H]2CN(C(=O)OC(C)(C)C)C3)ncnc1N1Cc2cnn(C)c2C1` [Example 9, tert-Butyl (9-anti)-9-{[5-methyl-6-(1-methyl-4,6-dihydropyrrolo[3,4-c]pyrazol-5(1H)-yl)pyrimidin-4-yl]oxy}-3-oxa-7-azabicyclo[3.3.1]nonane-7-carboxylate], the pEC50 is 7.19 and 7.24 and 7.11 on human GPR119 [1] (one line per run); 7.25 on human GPR119 [2]. Further, the Emax stood at 72% on human GPR119 [1] (setting [3]) and 70% at human GPR119 [2].
In the case of `CC(C)OC(=O)N1CCC(Oc2ncnc(N3Cc4cnn(C)c4C3)c2C#N)CC1` [Example 3, Isopropyyl 4-{[5-cyano-6-(1-methyl-4,6-dihydropyrrolo[3,4-c]pyrazol-5(1H)-yl)pyrimidin-4-yl]oxy}piperidine-1-carboxylate], the EC50 at human GPR119 [1] (**the curve was extrapolated to 100% to calculate an EC50, read-out: Human cAMP Functional EC50 (nM), curve extrapolated to 100%) was 6250 nM. In addition, the Emax is 100% at human GPR119 [1] (**the curve was extrapolated to 100% to calculate an EC50, read-out: Intrinsic Activity* (%) (cAMP), curve extrapolated to 100%) and 51% at human GPR119 [1] (setting [3]).
As to `Cc1c(O[C@H]2CCN(C(=O)OC3(C)CC3)C[C@H]2F)ncnc1N1Cc2cnn(C)c2C1` (racemic) [Example 7, 1-Methylcyclopropyyl (3,4-cis)-3-fluoro-4-{[5-methyl-6-(1-methyl-4,6-dihydropyrrolo[3,4-c]pyrazol-5(1H)-yl)pyrimidin-4-yl]oxy}piperidine-1-carboxylate (racemic)], the pEC50 was 7.77 and 7.85 and 7.92 on human GPR119 [1] (one line per run); 7.64 on human GPR119 [2]. The Emax amounted to 80% at human GPR119 [1] (setting [3]) and 77% on human GPR119 [2].
In the case of `Cc1c(O[C@H]2CCN(C(=O)OC(C)(C)C)C[C@@H]2F)ncnc1N1Cc2cnn(C)c2C1` (racemic) [Example 8, tert-Butyl (3,4-trans)-3-fluoro-4-{[5-methyl-6-(1-methyl-4,6-dihydropyrrolo[3,4-c]pyrazol-5(1H)-yl)pyrimidin-4-yl]oxy}piperidine-1-carboxylate (racemic)], the pEC50 was 6.74 and 7.11 and 7.07 on human GPR119 [1] (one line per run); 7.09 and 6.12 on human GPR119 [2].
`Cc1c(OC2CCN(C(=O)OC(C)C)CC2)ncnc1N1Cc2cnn(C)c2C1` [Example 2, Isopropyyl 4-{[5-methyl-6-(1-methyl-4,6-dihydropyrrolo[3,4-c]pyrazol-5(1H)-yl)pyrimidin-4-yl]oxy}piperidine-1-carboxylate]: the pEC50 on human GPR119 [1] (one line per run) is 6.53 and 6.77 and 6.87 and 6.36. Further, the Emax at human GPR119 [1] (setting [3]) came to 45%.
As for `Cc1c(O[C@H]2CCN(C(=O)OC(C)(C)C)C[C@H]2F)ncnc1N1Cc2cnn(C)c2C1` (racemic) [Example 6, tert-Butyl (3,4-cis)-3-fluoro-4-{[5-methyl-6-(1-methyl-4,6-dihydropyrrolo[3,4-c]pyrazol-5(1H)-yl)pyrimidin-4-yl]oxy}piperidine-1-carboxylate (racemic)], the pEC50 is 7.41 and 7.46 and 6.88 and 6.54 on human GPR119 [1] (one line per run); 7.72 at human GPR119 [2]. In addition, the Emax at human GPR119 [1] (setting [3]) amounted to 60%; at human GPR119 [2] it was 67%.

Usually pEC50 stands for the negative decadic logarithm of the EC50, by convention in mol/L. As a reminder, the EC50 is the concentration at which the effect is half-maximal.
